From PubChem BioAssay AID328 (DTP/NCI, 2004)
“And” between values parts separate entries of the source, which are not always exact repeats. Equal values may be shown once. Inconclusive results and toxic doses are left out.

System: BDF1 mice, P388 leukemia ip, median survival T/C
Test: NCI In Vivo Anticancer Drug Screen. Data for tumor model P388 Leukemia (intraperitoneal) in B6D2F1 (BDF1) mice
Settings: endpoint: median survival time, higher = longer survival
Method in brief: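 In tumour-bearing mice, survival after compound treatment is set against the vehicle group and given as a quotient.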

[1] = dose: 100.0 mg/kg/injection, schedule: Q01DX009 (ip), vehicle: saline with Tween-80
[2] = dose: 200.0 mg/kg/injection, schedule: Q01DX009 (ip), vehicle: saline with Tween-80
[3] = dose: 400.0 mg/kg/injection, schedule: Q01DX009 (ip), vehicle: saline with Tween-80
[4] = dose: 50.0 mg/kg/injection, schedule: Q01DX009 (ip), vehicle: saline with Tween-80
[5] = dose: 0.5 mg/kg/injection, schedule: Q01DX009 (ip), vehicle: water
[6] = dose: 1.0 mg/kg/injection, schedule: Q01DX009 (ip), vehicle: water
[7] = dose: 2.0 mg/kg/injection, schedule: Q01DX009 (ip), vehicle: water
[8] = dose: 4.0 mg/kg/injection, schedule: Q01DX009 (ip), vehicle: water
[9] = dose: 25.0 mg/kg/injection, schedule: Q01DX009 (ip), vehicle: Klucel (hydroxypropylcellulose) (HPC)
[10] = dose: 50.0 mg/kg/injection, schedule: Q01DX009 (ip), vehicle: Klucel (hydroxypropylcellulose) (HPC)
[11] = dose: 100.0 mg/kg/injection, schedule: Q01DX009 (ip), vehicle: Klucel (hydroxypropylcellulose) (HPC)
[12] = dose: 100.0 mg/kg/injection, schedule: Q04DX003 (ip), vehicle: Klucel (hydroxypropylcellulose) (HPC)
[13] = dose: 200.0 mg/kg/injection, schedule: Q01DX009 (ip), vehicle: Klucel (hydroxypropylcellulose) (HPC)
[14] = dose: 200.0 mg/kg/injection, schedule: Q04DX003 (ip), vehicle: Klucel (hydroxypropylcellulose) (HPC)
[15] = dose: 100.0 mg/kg/injection, schedule: Q04DX003 (ip), vehicle: saline
[16] = dose: 200.0 mg/kg/injection, schedule: Q04DX003 (ip), vehicle: saline
[17] = dose: 400.0 mg/kg/injection, schedule: Q04DX003 (ip), vehicle: saline
[18] = dose: 50.0 mg/kg/injection, schedule: Q01DX009 (ip), vehicle: saline
[19] = dose: 25.0 mg/kg/injection, schedule: Q01DX009 (ip), vehicle: saline
[20] = dose: 25.0 mg/kg/injection, schedule: Q04DX003 (ip), vehicle: saline
[21] = dose: 50.0 mg/kg/injection, schedule: Q04DX003 (ip), vehicle: saline
[22] = dose: 12.5 mg/kg/injection, schedule: Q01DX009 (ip), vehicle: saline with Tween-80
[23] = dose: 25.0 mg/kg/injection, schedule: Q01DX009 (ip), vehicle: saline with Tween-80

O=C/C=C/Nc1ccccc1
T/C [1]: 122 % of control | T/C [2]: 109 % of control | T/C [3]: 90 % of control

[O-]c1c[n+](-c2ccccc2)no1
T/C [4]: 119 % of control | T/C [2]: 94 % of control

NC(=O)CCCNC(=O)CCC[c-]1[c-][c-][c-][c-]1.[Fe].[c-]1[c-][c-][cH-][c-]1
T/C (dose: 6.25 mg/kg/injection, schedule: Q01DX009 (ip), vehicle: other): 100 % of control | T/C (dose: 12.5 mg/kg/injection, schedule: Q01DX009 (ip), vehicle: other): 98 % of control | T/C (dose: 25.0 mg/kg/injection, schedule: Q01DX009 (ip), vehicle: other): 100 % of control | T/C (dose: 50.0 mg/kg/injection, schedule: Q01DX009 (ip), vehicle: other): 114 % of control | T/C (dose: 100.0 mg/kg/injection, schedule: Q01DX009 (ip), vehicle: other): 121 % of control

CC[n+]1ccc(Nc2ccc(NC(=O)c3ccc(Nc4cc[n+](CC)c5ccc(N)cc45)cc3)cc2)cc1
T/C (dose: 0.02 mg/kg/injection, schedule: Q01DX010 (ip), vehicle: saline): 115 % of control | T/C (dose: 0.1 mg/kg/injection, schedule: Q01DX010 (ip), vehicle: saline): 110 % of control | T/C [5]: 154 % of control | T/C (dose: 0.5 mg/kg/injection, schedule: Q01DX010 (ip), vehicle: saline): 170 % of control | T/C [6]: 158 % of control | T/C (dose: 1.0 mg/kg/injection, schedule: Q01DX010 (ip), vehicle: saline): 195 % of control | T/C [7]: 212 % of control | T/C (dose: 2.0 mg/kg/injection, schedule: Q01DX010 (ip), vehicle: saline): 275 % of control | T/C [8]: 250 % of control | T/C (dose: 4.0 mg/kg/injection, schedule: Q01DX010 (ip), vehicle: saline): 120 % of control | T/C (dose: 8.0 mg/kg/injection, schedule: Q01DX009 (ip), vehicle: water): 116 % of control | T/C (dose: 8.0 mg/kg/injection, schedule: Q01DX010 (ip), vehicle: saline): 100 % of control

O=C1CCCc2ccccc2N1
T/C [9]: 100 % of control | T/C [10]: 95 % of control | T/C [11]: 91 % of control | T/C [12]: 95 % of control | T/C [13]: 91 % of control | T/C [14]: 100 % of control | T/C (dose: 400.0 mg/kg/injection, schedule: Q01DX009 (ip), vehicle: Klucel (hydroxypropylcellulose) (HPC)): 91 % of control | T/C (dose: 400.0 mg/kg/injection, schedule: Q04DX003 (ip), vehicle: Klucel (hydroxypropylcellulose) (HPC)): 100 % of control

Cc1ncc(CO)c(CO)c1O
T/C [15]: 122 % of control | T/C [16]: 113 % of control | T/C [17]: 95 % of control

COC(=O)C(C)=O
T/C [1]: 90 % of control | T/C [2]: 95 % of control | T/C [3]: 90 % of control

COc1ccc(N=C(c2ccccc2)c2ccc([N+](=O)[O-])cc2)cc1
T/C (dose: 12.0 mg/kg/injection, schedule: Q01DX009 (ip), vehicle: Klucel (hydroxypropylcellulose) (HPC)): 100 % of control | T/C [9]: 109 % of control | T/C [10]: 100 % of control and 122 % of control | T/C [11]: 86 % of control | T/C [13]: 90 % of control

CN(C)c1ncnc2c1ncn2C1OC(CO)C(N)C1O (stereo not drawn)
T/C (dose: 14.0 mg/kg/injection, schedule: Q01DX009 (ip), vehicle: saline): 95 % of control | T/C (dose: 22.0 mg/kg/injection, schedule: Q01DX009 (ip), vehicle: saline): 100 % of control | T/C [18]: 150 % of control and 177 % of control

Cc1[nH]c(=O)[nH]c(=O)c1/C=C/C(=O)NC(CO)CC(C)C (stereo not drawn)
T/C (dose: 12.5 mg/kg/injection, schedule: Q01DX009 (ip), vehicle: saline): 108 % of control | T/C [19]: 90 % of control | T/C [20]: 107 % of control | T/C [18]: 102 % of control | T/C [21]: 100 % of control | T/C (dose: 100.0 mg/kg/injection, schedule: Q01DX009 (ip), vehicle: saline): 91 % of control | T/C [15]: 91 % of control | T/C (dose: 200.0 mg/kg/injection, schedule: Q01DX009 (ip), vehicle: saline): 108 % of control | T/C [16]: 109 % of control | T/C (dose: 400.0 mg/kg/injection, schedule: Q01DX009 (ip), vehicle: saline): 100 % of control | T/C [17]: 116 % of control

O=[N+]([O-])c1ccc(Sc2ccccc2)c2nonc12
T/C [22]: 88 % of control | T/C [23]: 107 % of control | T/C [4]: 116 % of control

C(=Nc1ccccc1)c1ccccc1C=Nc1ccccc1
T/C (dose: 100.0 mg/kg/injection, schedule: Q04DX003 (ip), vehicle: saline with Tween-80): 104 % of control | T/C (dose: 200.0 mg/kg/injection, schedule: Q04DX003 (ip), vehicle: saline with Tween-80): 109 % of control | T/C (dose: 400.0 mg/kg/injection, schedule: Q04DX003 (ip), vehicle: saline with Tween-80): 100 % of control

O=C1CN(c2ccccc2)CC(=O)N2C(c3ccccc3)CCCN12 (stereo not drawn)
T/C (dose: 50.0 mg/kg/injection, schedule: Q01DX005 (ip), vehicle: saline with Tween-80): 113 % of control | T/C (dose: 100.0 mg/kg/injection, schedule: Q01DX005 (ip), vehicle: saline with Tween-80): 97 % of control | T/C (dose: 200.0 mg/kg/injection, schedule: Q01DX005 (ip), vehicle: saline with Tween-80): 97 % of control

NCCc1cnc2ccccc2n1
T/C (dose: 18.0 mg/kg/injection, schedule: Q01DX009 (ip), vehicle: saline): 96 % of control | T/C [19]: 100 % of control | T/C [20]: 100 % of control | T/C (dose: 37.0 mg/kg/injection, schedule: Q01DX009 (ip), vehicle: saline): 92 % of control | T/C [18]: 120 % of control | T/C [21]: 100 % of control | T/C [15]: 100 % of control

NC(=S)NNC(=O)C(Cc1ccccc1)NC(=O)OCc1ccccc1 (stereo not drawn)
T/C [22]: 100 % of control | T/C [23]: 94 % of control

O=C(Nc1ccc(C(=O)Nc2cc(S(=O)(=O)O)cc3cccc(S(=O)(=O)O)c23)cc1)Nc1ccc(C(=O)Nc2cc(S(=O)(=O)O)cc3cccc(S(=O)(=O)O)c23)cc1
T/C [10]: 95 % of control | T/C (dose: 50.0 mg/kg/injection, schedule: Q04DX003 (ip), vehicle: Klucel (hydroxypropylcellulose) (HPC)): 100 % of control | T/C [11]: 110 % of control | T/C [12]: 104 % of control | T/C [14]: 86 % of control

CCCCC(=O)NN(Cn1c(=S)sc2ccccc21)Cn1c(=S)sc2ccccc21
T/C (dose: 12.5 mg/kg/injection, schedule: Q01DX009 (ip), vehicle: Klucel (hydroxypropylcellulose) (HPC)): 109 % of control | T/C [9]: 109 % of control | T/C [10]: 272 % of control

CCCCCCCC(=O)OCC(=O)[C@]1(O)Cc2c(O)c3c(c(O)c2[C@@H](OC2CC(N)C(O)C(C)O2)C1)C(=O)c1c(OC)cccc1C3=O (stereo partly drawn)
T/C [5]: 204 % of control | T/C [6]: 254 % of control and 190 % of control | T/C (dose: 1.0 mg/kg/injection, schedule: Q04DX003 (ip), vehicle: water): 207 % of control | T/C [7]: 231 % of control and 311 % of control | T/C (dose: 2.0 mg/kg/injection, schedule: Q04DX003 (ip), vehicle: water): 264 % of control | T/C (dose: 2.5 mg/kg/injection, schedule: Q04DX003 (ip), vehicle: water): 116 % of control | T/C (dose: 2.88 mg/kg/injection, schedule: Q04DX003 (ip), vehicle: water): 215 % of control | T/C [8]: 90 % of control | T/C (dose: 4.0 mg/kg/injection, schedule: Q04DX003 (ip), vehicle: water): 271 % of control | T/C (dose: 4.8 mg/kg/injection, schedule: Q04DX003 (ip), vehicle: water): 339 % of control | T/C (dose: 10.0 mg/kg/injection, schedule: Q04DX003 (ip), vehicle: water): 174 % of control | T/C (dose: 40.0 mg/kg/injection, schedule: Q04DX003 (ip), vehicle: water): 100 % of control

CCNc1ncc([N+](=O)[O-])c(Nc2ccccc2)n1
T/C [4]: 103 % of control | T/C [1]: 103 % of control | T/C [2]: 88 % of control

CCOC(=S)N/N=C(\C)CC
T/C (dose: 2.5 mg/kg/injection, schedule: Q01DX009 (ip), vehicle: saline with Tween-80): 93 % of control | T/C (dose: 5.0 mg/kg/injection, schedule: Q01DX009 (ip), vehicle: saline with Tween-80): 93 % of control
